The text below walks through data of paper PMC11522800 (Frontiers in Immunology, 2024).

How the values of data set [1] were obtained: Cohort 1 received 50 mg of each dipeptide in 300 mL water. Cohort 2 received 100 mL Peptamen first, then 50 mg of each dipeptide in 150 mL water, followed by another 50 mL water. All drinks were taken within a minute. Cohort 3 received 100 mL Peptamen first, then a reduced dose of 5 mg of each dipeptide in 150 mL water, followed by another 50 mL water. All drinks were taken within a minute. Blood samples were collected after 15 min, 30 min, 45 min, 1 h, 2 h, 3 h, 4 h, 6 h, 8 h, 10 h, 14 h, 48 h and 72 h after dosing. Urine was collected and pooled at 0-4 h, 4-6 h, and 6-10 h, and was collected as spot urine at 48 h and 72 h after dosing.
Plasma samples were thawed on ice, mixed, and 100 µL of each sample was transferred to a 1.5 mL LoBind reaction tube. Plasma samples were precipitated after adding 200 µL of acetonitrile/methanol (10:1), and incubated on ice for 15 min. Samples were centrifuged at 16,000 g for 15 min at 4 °C. 100 µL supernatant was dried under nitrogen at 40 °C. Samples were reconstituted in 100 µL 0.1% formic acid and 5 µL was applied to the LC-MS/MS instrument.
Labelled XP dipeptides and single amino acids (P*, L*, F*) in plasma samples were quantified by LC-MS/MS using Nexera LC40 HPLC system (Shimadzu, Duisburg, Germany) coupled to an API 6500+ ™ tandem mass spectrometer (AB Sciex, Darmstadt, Germany). For chromatographic separation an ACQUITY UPLC HSS PFP Column (100 Å, 1.8 µm, 2.1 mm X 150 mm; Waters, Eschborn, Germany) protected by a SecurityGuard C18 column (4x2 mm; Phenomenex, Aschaffenburg, Germany) was used. Chromatographic separation was performed at an oven temperature of 40°C and the solvent flow rate was set to 400 µL/min. Elution was achieved by varying composition of solvent A (90% acetonitrile + methanol (6 + 1), 0.1% formic acid in H2O) and solvent B (0.1% formic acid in H2O) using following LC conditions: 0-1.4 min 0% solvent A; 1.4-10.4 min 0-50% solvent A; 10.5-12.9 min 80% solvent A; 13-15 min 0% solvent A. To decrease the introduction of debris into the MS, a valve was directed to waste at 0.1-1 min and 9.5-14.9 min.
MS detection of labelled amino acids and XP dipeptides was performed in positive mode with curtain gas set to 40, gas 1 of 50, gas 2 of 70, temperature of 500°C and an IS of 3500. Detection was achieved using MS parameters and mass transitions listed in Supplementary Table 3 .
LC-MS/MS-generated chromatograms were analyzed using Analyst 1.7.2 (Sciex, Darmstadt, Germany). The pharmacokinetics parameter AUC was calculated using GraphPad Prism version 8.0 (GraphPad Prism Software Inc., La Jolla, CA, USA). Partial AUCs were calculated manually using the trapezoidal rule.
Statistical analyses were performed using SPSS Statistics Version 28 (SPSS Inc., IBM, Chicago, IL, USA). To compare the effects between cohorts in the dipeptide resorption study the one-tailed Mann-Whitney-Test was applied. To compare the effects between enzyme supplementation and controls during the proof-of-concept study the one tailed Wilcoxon matched-pairs signed rank test was applied.

Data set [2] is described as follows: plasma of healthy volunteers after oral administration of SI-labelled XP dipeptides (with water or Peptamen). The following applies: human (healthy volunteers), up to 72 h.
The subject of data set [3] is gastric, pancreatic, and intestinal peptidases. Put plainly: human gastric, pancreatic, and intestinal peptidases. As to conditions: cited from earlier work.
Data set [4] concerns AMYNOPEP (dipeptidyl peptidase : aminopeptidase, 1:1 ratio). The data set can be described thus: in vitro with AMYNOPEP at an enzyme ratio of 1:1.
In data set [5] the test system is AMYNOPEP (dipeptidyl peptidase and aminopeptidase, 1:10 enzyme ratio). Put plainly: Tris buffer at pH 7.0 using an enzyme mixture consisting of 0.86 mg/L dipeptidyl peptidase and 8.6 mg/L aminopeptidase. As to conditions: 37°C, up to 60 minutes.

Read-outs that look alike come from different tables or passages of the source.

Take `N[C@@H](Cc1ccccc1)C(=O)O` [F*, phenylalanine]: the “reduction in plasma AUC of labelled amino acid on dose reduction from 50 mg to 5 mg of each XP” value (“reduction in plasma AUC” for short) in data set [1] (oral XP dipeptides taken with 100 mL Peptamen, n=3 healthy volunteers per cohort, LC-MS/MS) is listed as 9.5 fold. In data set [1] (oral, 50 mg each of F*P*, LP*, L*P* in water, n=3 healthy volunteers, HPLC-MS/MS), the “SI-labelled amino acid detection in plasma after oral XP dipeptides” value is given as “detectable”. In addition, in data set [1] (oral, 50 mg of each XP dipeptide with 100 mL Peptamen vs water, n=3 healthy volunteers per cohort, LC-MS/MS), the “decrease in plasma AUC of labelled amino acid with Peptamen relative to water” value worked out at 2.1 fold. As to `CC(C)C[C@H](N)C(=O)O` [L*, leucine], the “reduction in plasma AUC” value in data set [1] (human, in vivo, po) came to 13.2 fold. As to `O=C(O)[C@@H]1CCCN1` [P*, proline], in data set [1] (human, in vivo, po), the “reduction in plasma AUC” value was 11.5 fold. With F*P*, the cleaved bond result in data set [2] is given as “F*-P*”. With L*P*, the cleaved bond entry in data set [2] was “L*-P*”. As for LQLQPFPQPQLPYPQPQLPYPQPQLPYPQPQPF, the not cleaved result in data set [3] was “thought to be stable to proteolytic digestion”. For the same compound, the cleaved bond result in data set [4] was “P-F”; in data set [5] it was “L-Q, 5 min and P-Q and Q-L and P-Y and P-F, within 30 minutes and Q-L, 5 min and P-F, 5 min and P-Q, 5 min”.
